Here are results for 8 molecules from US20230114728A1 (Venatorx Pharmaceuticals, Inc., priority 2019, published 2023).

Holding throughout (test): Broth microdilution MIC in CAMHB
Type in all cases: cell-based
Background: Dilution methods test growth across graded concentrations, often in twofold steps.

One assay has as its system A. baumannii ATCC 19606. Conditions: Acinetobacter baumannii, ATCC19606; MHB; read-out: Minimum Inhibitory Concentration, A. baumannii ATCC 19606. In outline: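 Lowest compound concentration with no visible growth after 16-20 h at 37 °C defines MIC. Plates of 2-fold serial dilutions in cation-adjusted Mueller Hinton broth received 2-8×10^5 CFU/mL of exponentially grown cells, per CLSI methods; panel spans reference, hyper-permeable and efflux-pump-deleted strains.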

The test system of the next assay is P. aeruginosa ATCC 35151. Conditions: Pseudomonas aeruginosa, ATCC35151; MHB; hyper-permeable strain; read-out: Minimum Inhibitory Concentration, P. aeruginosa ATCC 35151. In outline:
(§1)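 Standard CLSI-style microdilution in cation-adjusted Mueller Hinton broth, 2-fold dilution series, incubated 16-20 h at 37° C; endpoint was visual absence of growth.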

Assay [1] deals with K. pneumoniae SI-117 producing VIM-1. Conditions: Klebsiella pneumoniae, read-out: Minimum Inhibitory Concentration, K. pneumoniae SI-117. In short, it runs like this:
as §1

The test system of a further assay is E. coli 901C. Conditions: Escherichia coli; E. coli 901C (hyper-permeable); MHB; read-out: Minimum Inhibitory Concentration, E. coli 901C. In outline: as §1
The test system of assay [2] is K. pneumoniae UMM producing SHV-5 and KPC-2. Conditions: Klebsiella pneumoniae, read-out: Minimum Inhibitory Concentration, K. pneumoniae UMM. In outline: as §1
In another assay the test system is P. aeruginosa ATCC 27853. Conditions: Pseudomonas aeruginosa, ATCC27853; MHB; read-out: Minimum Inhibitory Concentration, P. aeruginosa ATCC 27853. In short, it runs like this: as §1
For a further assay, the system named is E. coli AG100. As to conditions: Escherichia coli; E. coli AG100 (wild-type parent); MHB; read-out: Minimum Inhibitory Concentration, E. coli AG100. In short, it runs like this:
as §1

The subject of a further assay is E. coli D22. Conditions: Escherichia coli; E. coli D22 (hyper-permeable); MHB; read-out: Minimum Inhibitory Concentration, E. coli D22. In outline:
as §1

For assay [3], the system named is P. aeruginosa (ΔmexAB-oprM). Conditions: Pseudomonas aeruginosa, read-out: Minimum Inhibitory Concentration, P. aeruginosa ΔmexAB-OprM. In outline:
as §1

Another assay relates to E. coli ATCC 25922. As to conditions: Escherichia coli, ATCC25922; E. coli ATCC 25922; MHB; read-out: Minimum Inhibitory Concentration, E. coli 25922. In outline: as §1
The next assay relates to E. coli AG100A. As to conditions: Escherichia coli, read-out: Minimum Inhibitory Concentration, E. coli AG100A. In short, it runs like this: as §1
Assay [4] concerns K. pneumoniae 848844 producing SHV-11 and KPC-2. Conditions: Klebsiella pneumoniae, read-out: Minimum Inhibitory Concentration, K. pneumoniae 848844. In outline:
as §1

In brackets after ≈: the same amount, converted by molar mass. Where only a bound is given, the exact number is not on record here.

As to `NCCN1CCN(C(=O)NC(C(=O)N[C@H]2Cc3cccc(C(=O)O)c3OB2O)c2ccc(C(=O)O)cc2O)C(=O)C1=O` (stereo partly drawn) [Example 142, (3R)-3-(2-(4-(2-aminoethyl)-2,3-dioxopiperazine-1-carboxamido)-2-(4-carboxy-2-hydroxyphenyl)acetamido)-2-hydroxy-3,4-dihydro-2H-benzo[e][1,2]oxaborinine-8-carboxylic acid], the MIC in the assay on A. baumannii ATCC 19606 is over 128 µg/mL; with P. aeruginosa ATCC 35151, 2 to 4 µg/mL (≈ 3.43 to 6.86 µM); in assay [1], over 128 µg/mL; in the assay on E. coli 901C, 2 to 4 µg/mL (≈ 3.43 to 6.86 µM); in [2] it was 32 to 64 µg/mL (≈ 54.9 to 110 µM); in the assay on P. aeruginosa ATCC 27853 it was over 128 µg/mL. The MIC with E. coli AG100 is 32 to 64 µg/mL (≈ 54.9 to 110 µM); in the assay on E. coli D22, 8 to 16 µg/mL (≈ 13.7 to 27.4 µM); in assay [3], over 128 µg/mL; with E. coli ATCC 25922, over 128 µg/mL; with E. coli AG100A, 32 to 64 µg/mL (≈ 54.9 to 110 µM); in assay [4], over 128 µg/mL.
As to `CCN1CCN(C(=O)NC(C(=O)N[C@H]2Cc3cccc(C(=O)O)c3OB2O)c2ccc(C(=O)O)cc2F)C(=O)C1=O` (stereo partly drawn) [Example 145, (3R)-3-(2-(4-carboxy-2-fluorophenyl)-2-(4-ethyl-2,3-dioxopiperazine-1-carboxamido)acetamido)-2-hydroxy-3,4-dihydro-2H-benzo[e][1,2]oxaborinine-8-carboxylic acid], the MIC in the assay on A. baumannii ATCC 19606 was over 128 µg/mL; in the assay with P. aeruginosa ATCC 35151 it was under 0.25 µg/mL; in [1], over 128 µg/mL; in the assay on E. coli 901C, under 0.25 µg/mL; in assay [2], 32 to 64 µg/mL (≈ 56.1 to 112 µM); in the assay with P. aeruginosa ATCC 27853 it was over 128 µg/mL. For the same molecule, the MIC in the assay with E. coli AG100 was 32 to 64 µg/mL (≈ 56.1 to 112 µM); with E. coli D22 it was 2 to 4 µg/mL (≈ 3.51 to 7.01 µM); in assay [3] it was 8 to 16 µg/mL (≈ 14 to 28.1 µM); in the assay with E. coli ATCC 25922, 32 to 64 µg/mL (≈ 56.1 to 112 µM); with E. coli AG100A it was 8 to 16 µg/mL (≈ 14 to 28.1 µM); in assay [4], over 128 µg/mL.
As to `CCN1CCN(C(=O)NC(C(=O)N[C@H]2Cc3cccc(C(=O)O)c3OB2O)c2c(Cl)cc(C(=O)O)cc2Cl)C(=O)C1=O` (stereo partly drawn) [Example 150, (3R)-3-(2-(4-carboxy-2,6-dichlorophenyl)-2-(4-ethyl-2,3-dioxopiperazine-1-carboxamido)acetamido)-2-hydroxy-3,4-dihydro-2H-benzo[e][1,2]oxaborinine-8-carboxylic acid], the MIC in the assay with A. baumannii ATCC 19606 is over 128 µg/mL; in the assay with P. aeruginosa ATCC 35151 it was 0.5 to 1 µg/mL (≈ 0.805 to 1.61 µM); in [1], over 128 µg/mL; with E. coli 901C, under 0.25 µg/mL; in [2], over 128 µg/mL; with P. aeruginosa ATCC 27853, over 128 µg/mL. The MIC in the assay on E. coli AG100 was over 128 µg/mL; in the assay on E. coli D22 it was 2 to 4 µg/mL (≈ 3.22 to 6.44 µM); in [3], over 128 µg/mL; in the assay with E. coli ATCC 25922 it was over 128 µg/mL; in the assay on E. coli AG100A, 32 to 64 µg/mL (≈ 51.5 to 103 µM); in assay [4], over 128 µg/mL.
As to `NCCN1CCN(C(=O)NC(C(=O)N[C@H]2Cc3cccc(C(=O)O)c3OB2O)c2ccc(C(=O)O)c(Cl)c2)C(=O)C1=O` (stereo partly drawn) [Example 153, (3R)-3-(2-(4-(2-aminoethyl)-2,3-dioxopiperazine-1-carboxamido)-2-(4-carboxy-3-chlorophenyl)acetamido)-2-hydroxy-3,4-dihydro-2H-benzo[e][1,2]oxaborinine-8-carboxylic acid], the MIC was over 128 µg/mL with A. baumannii ATCC 19606; 0.5 to 1 µg/mL (≈ 0.831 to 1.66 µM) in the assay with P. aeruginosa ATCC 35151; over 128 µg/mL in [1]; 0.5 to 1 µg/mL (≈ 0.831 to 1.66 µM) in the assay with E. coli 901C; 32 to 64 µg/mL (≈ 53.2 to 106 µM) in assay [2]; 32 to 64 µg/mL (≈ 53.2 to 106 µM) with P. aeruginosa ATCC 27853. The MIC is 32 to 64 µg/mL (≈ 53.2 to 106 µM) in the assay with E. coli AG100; 2 to 4 µg/mL (≈ 3.32 to 6.65 µM) in the assay on E. coli D22; 8 to 16 µg/mL (≈ 13.3 to 26.6 µM) in [3]; 32 to 64 µg/mL (≈ 53.2 to 106 µM) in the assay on E. coli ATCC 25922; 8 to 16 µg/mL (≈ 13.3 to 26.6 µM) in the assay with E. coli AG100A; over 128 µg/mL in assay [4].
With `O=C(O)c1cccc2c1OB(O)[C@@H](NC(=O)C(NC(=O)N1CCNC1=O)c1c(F)cc(O)cc1F)C2` (stereo partly drawn) [Example 156, (3R)-3-(2-(2,6-difluoro-4-hydroxyphenyl)-2-(2-oxoimidazolidine-1-carboxamido)acetamido)-2-hydroxy-3,4-dihydro-2H-benzo[e][1,2]oxaborinine-8-carboxylic acid], the MIC with A. baumannii ATCC 19606 was over 128 µg/mL; in the assay with P. aeruginosa ATCC 35151, 0.5 to 1 µg/mL (≈ 0.992 to 1.98 µM); in assay [1], 32 to 64 µg/mL (≈ 63.5 to 127 µM); in the assay with E. coli 901C, 0.5 to 1 µg/mL (≈ 0.992 to 1.98 µM); in [2] it was 32 to 64 µg/mL (≈ 63.5 to 127 µM); with P. aeruginosa ATCC 27853, over 128 µg/mL. Moreover, the MIC with E. coli AG100 lay within 32 to 64 µg/mL (≈ 63.5 to 127 µM); in the assay on E. coli D22 it was 8 to 16 µg/mL (≈ 15.9 to 31.7 µM); in [3], 8 to 16 µg/mL (≈ 15.9 to 31.7 µM); in the assay on E. coli ATCC 25922, 32 to 64 µg/mL (≈ 63.5 to 127 µM); in the assay on E. coli AG100A, 2 to 4 µg/mL (≈ 3.97 to 7.93 µM); in [4] it was 32 to 64 µg/mL (≈ 63.5 to 127 µM).
`CCN1CCN(C(=O)NC(C(=O)N[C@H]2Cc3cccc(C(=O)O)c3OB2O)c2c(F)cc(C(=O)O)cc2F)C(=O)C1=O` (stereo partly drawn) [Example 157, (3R)-3-(2-(4-carboxy-2,6-difluorophenyl)-2-(4-ethyl-2,3-dioxopiperazine-1-carboxamido)acetamido)-2-hydroxy-3,4-dihydro-2H-benzo[e][1,2]oxaborinine-8-carboxylic acid]: the MIC in the assay with A. baumannii ATCC 19606 was over 128 µg/mL; with P. aeruginosa ATCC 35151 it was 0.5 to 1 µg/mL (≈ 0.85 to 1.7 µM); in assay [1], over 128 µg/mL; with E. coli 901C, under 0.25 µg/mL; in [2] it was 32 to 64 µg/mL (≈ 54.4 to 109 µM); in the assay with P. aeruginosa ATCC 27853, over 128 µg/mL. In addition, the MIC with E. coli AG100 is 32 to 64 µg/mL (≈ 54.4 to 109 µM); in the assay with E. coli D22, 2 to 4 µg/mL (≈ 3.4 to 6.8 µM); in assay [3] it was 8 to 16 µg/mL (≈ 13.6 to 27.2 µM); in the assay with E. coli ATCC 25922, 32 to 64 µg/mL (≈ 54.4 to 109 µM); in the assay with E. coli AG100A it was 8 to 16 µg/mL (≈ 13.6 to 27.2 µM); in [4] it was over 128 µg/mL.
Take `CCN1CCN(C(=O)NC(C(=O)N[C@H]2Cc3cccc(C(=O)O)c3OB2O)c2cc(F)c(O)c(F)c2)C(=O)C1=O` (stereo partly drawn) [Example 160, (3R)-3-(2-(3,5-difluoro-4-hydroxyphenyl)-2-(4-ethyl-2,3-dioxopiperazine-1-carboxamido)acetamido)-2-hydroxy-3,4-dihydro-2H-benzo[e][1,2]oxaborinine-8-carboxylic acid]: the MIC is over 128 µg/mL in the assay with A. baumannii ATCC 19606; under 0.25 µg/mL with P. aeruginosa ATCC 35151; over 128 µg/mL in assay [1]; under 0.25 µg/mL with E. coli 901C; 32 to 64 µg/mL (≈ 57.1 to 114 µM) in assay [2]; over 128 µg/mL with P. aeruginosa ATCC 27853. Besides, the MIC is 32 to 64 µg/mL (≈ 57.1 to 114 µM) in the assay on E. coli AG100; 2 to 4 µg/mL (≈ 3.57 to 7.14 µM) in the assay with E. coli D22; 2 to 4 µg/mL (≈ 3.57 to 7.14 µM) in assay [3]; 32 to 64 µg/mL (≈ 57.1 to 114 µM) in the assay with E. coli ATCC 25922; 2 to 4 µg/mL (≈ 3.57 to 7.14 µM) with E. coli AG100A; 32 to 64 µg/mL (≈ 57.1 to 114 µM) in [4].
With `NCCN1CCN(C(=O)NC(C(=O)N[C@H]2Cc3cccc(C(=O)O)c3OB2O)c2cc(F)c(O)c(Cl)c2)C(=O)C1=O` (stereo partly drawn) [Example 163, (3R)-3-(2-(4-(2-aminoethyl)-2,3-dioxopiperazine-1-carboxamido)-2-(3-chloro-5-fluoro-4-hydroxyphenyl)acetamido)-2-hydroxy-3,4-dihydro-2H-benzo[e][1,2]oxaborinine-8-carboxylic acid], the MIC in the assay with A. baumannii ATCC 19606 is over 128 µg/mL; in the assay with P. aeruginosa ATCC 35151, under 0.25 µg/mL; in [1] it was over 128 µg/mL; in the assay with E. coli 901C, 0.5 to 1 µg/mL (≈ 0.845 to 1.69 µM); in assay [2], 32 to 64 µg/mL (≈ 54.1 to 108 µM); with P. aeruginosa ATCC 27853 it was 32 to 64 µg/mL (≈ 54.1 to 108 µM). In addition, the MIC with E. coli AG100 was 32 to 64 µg/mL (≈ 54.1 to 108 µM); with E. coli D22, 8 to 16 µg/mL (≈ 13.5 to 27 µM); in assay [3], 2 to 4 µg/mL (≈ 3.38 to 6.76 µM); in the assay with E. coli ATCC 25922, 32 to 64 µg/mL (≈ 54.1 to 108 µM); in the assay on E. coli AG100A, 2 to 4 µg/mL (≈ 3.38 to 6.76 µM); in [4] it was over 128 µg/mL.
